Results taken from patent publication US7935698B2, “Heteroaryl-hydrazone compounds” (Synta Pharmaceuticals Corporation, priority 2003, dated 2011).

System: IL-12 production
Assay: Human in vitro assay: inhibition of IL-12 production in stimulated human PBMC or THP-1 cells (sandwich ELISA)
Type: cell-based
Conditions: primed with IFNγ and stimulated with LPS or SAC, IL-12 by ELISA
Source text: The biological activities of the compounds of the invention can be evaluated by a number of cell-based assays. One of such assays can be conducted using cells from human peripheral blood mononuclear cells (PBMC) or human monocytic cell line (THP-1). The cells are stimulated with a combination of human interferon-γ (IFNγ) and lipopolysaccharide or a combination of IFNγ and Staphylococcus aureus Cowan I in the presence of a test compound. The level of inhibition of IL-12 production can be measured by determining the amount of p70 by using a sandwich ELISA assay with anti-human IL-12 antibodies. IC50 of the test compound can then be determined. Specifically, PBMC or THP-1 cells are incubated with the test compound. Cell viability was assessed using the bioreduction of MTS [3-(4,5-dimethylthiazol-2-yl)-5-(3-carboxymethoxyphenyl)-2-(4-sulfophenyl)-2H-tetrazolium] (Promega, Madison, Wis.).
Reagents. Staphylococcus aureus Cowan I (SAC) is obtained from Calbiochem (La Jolla, Calif.), and lipopolysaccharide (LPS, Serratia marscencens) is obtained from Sigma (St. Louis, Mo.). Human and mouse recombinant IFNγ are purchased from Boehringer Mannheim (Mannheim, Germany) and Pharmingen (San Diego, Calif.), respectively.
Human In Vitro Assay. Human PBMC were isolated by centrifugation using Ficoll-Paque (Pharmacia Biotech, Uppsala, Sweden) and prepared in RPMI medium supplemented with 10% fetal calf serum (FCS), 100 U/mL penicillin, and 100 μg/mL streptomycin. PBMC were plated in wells of a 96-well plate at a concentration of 5×10^5 cells/well, and primed by adding IFNγ (30 U/mL) for 22 h and stimulated by adding LPS (1 μg/mL), or by adding IFNγ (100 U/mL) and then stimulated by adding SAC (0.01%). A test heteroaryl hydrazone compound was dissolved in DMSO, and added to wells of the 96-well plate. The final DMSO concentration was adjusted to 0.25% in all cultures, including the compound-free control. Human THP-1 cells were plated in wells, primed by adding IFNγ (100 U/mL) for 22 h and stimulated by adding SAC (0.025%) in the presence of different concentrations of the heteroaryl hydrazone compound. Cell-free supernatants were taken 18 h later for measurement of cytokines. Cell viability was assessed using the bioreduction of MTS. Cell survival was estimated by determining the ratio of the absorbance in compound-treated groups versus compound-free control.
The supernatant was assayed for the amount of IL-12p40, IL-12p70, or IL-10 by using a sandwich ELISA with anti-human antibodies, i.e., a Human IL-12 p40 ELISA kit from R&D Systems (Berkeley, Calif.), and a Human IL-12 p70 or IL-10 ELISA kit from Endogen (Cambridge, Mass.). Assays were based on the manufacturer's instructions.
The biological activities of heteroaryl hydrazone compounds were tested on human PBMC or THP-1 cells.

Row | SMILES | IC50 [nM]
1 | Clc1cccc(NN=Cc2cc(N3CCOCC3)nc(OCCc3ccccn3)n2)c1 [Compound 2, N-(3-Chloro-phenyl)-N′-[6-morpholin-4-yl-2-(2-pyridin-2-yl-ethoxy)-pyrimidin-4-ylmethylene]-hydrazine] | 10
2 | Cc1ccc(C)c(NN=Cc2cc(N3CCOCC3)nc(OCCc3ccccn3)n2)c1 [Compound 4, N-(2,5-Dimethyl-phenyl)-N′-[6-morpholin-4-yl-2-(2-pyridin-2-yl-ethoxy)-pyrimidin-4-ylmethylene]-hydrazine] | 6.5
3 | Cc1cccc(NN=Cc2cc(OCCc3ccccn3)nc(N3CCOCC3)n2)c1 [Compound 6, N-[2-Morpholin-4-yl-6-(2-pyridin-2-yl-ethoxy)-pyrimidin-4-ylmethylene]-N′-m-tolyl-hydrazine] | 40

Stronger by IC50, values ahead:

Row | IC50 [nM] | SMILES
4 | 2.2 | Cc1cccc(NN=Cc2cc(N3CCOCC3)nc(OCCc3ccccn3)n2)c1 [Compound 1, N-[6-Morpholin-4-yl-2-(2-pyridin-2-yl-ethoxy)-pyrimidin-4-ylmethylene]-N′-m-tolyl-hydrazine]
5 | 2.2 | COc1cccc(NN=Cc2cc(N3CCOCC3)nc(OCCc3ccccn3)n2)c1 [Compound 3, N-(3-Methoxy-phenyl)-N′-[6-morpholin-4-yl-2-(2-pyridin-2-yl-ethoxy)-pyrimidin-4-ylmethylene]-hydrazine]
